What was measured:
[1] = Toxicity in nude mouse xenografted with human MGC-803 cells assessed as effect on body weight at 4 mg/kg, ip administrated every other day for 21 days; assay type: organism-based; settings: in vivo, 504 h, time 21 day
CNE-2 [2] = assay: Induction of apoptosis in human CNE-2 cells assessed as viable cells at 2 uM measured after 24 hrs by annexin-V-FITC and PI staining based flow cytometry analysis (reference value: 94.8%); assay type: functional; settings: read-out: Activity
CNE-2 [3] = assay: Induction of apoptosis in human CNE-2 cells assessed as early apoptotic cells at 2 uM measured after 24 hrs by annexin-V-FITC and PI staining based flow cytometry analysis (reference value: 0.439%); assay type: functional
CNE-2 [4] = assay: Induction of apoptosis in human CNE-2 cells assessed as early apoptotic cells at 0.5 uM measured after 24 hrs by annexin-V-FITC and PI staining based flow cytometry analysis (reference value: 0.439%); assay type: functional
CNE-2 [5] = assay: Induction of apoptosis in human CNE-2 cells assessed as viable cells at 0.5 uM measured after 24 hrs by annexin-V-FITC and PI staining based flow cytometry analysis (reference value: 94.8%); assay type: functional; settings: read-out: Activity
CNE-2 [6] = assay: Induction of apoptosis in human CNE-2 cells assessed as early apoptotic cells at 1 uM measured after 24 hrs by annexin-V-FITC and PI staining based flow cytometry analysis (reference value: 0.439%); assay type: functional
CNE-2 [7] = assay: Induction of cell cycle arrest in human CNE-2 cells assessed as accumulation of cells at S phase at 0.5 uM measured after 48 hrs by flow cytometry analysis (Rvb= 19.83%); assay type: functional
CNE-2 [8] = assay: Induction of apoptosis in human CNE-2 cells assessed as necrotic cells at 0.5 uM measured after 24 hrs by annexin-V-FITC and PI staining based flow cytometry analysis (reference value: 0.959%); assay type: functional
CNE-2 [9] = assay: Induction of cell cycle arrest in human CNE-2 cells assessed as accumulation of cells at G1 phase at 1 uM measured after 48 hrs by flow cytometry analysis (Rvb= 73.18%); assay type: functional
CNE-2 [10] = assay: Antiproliferative activity against human CNE-2 cells assessed as cell growth inhibition by MTT assay; assay type: functional, cell-based
CNE-2 [11] = assay: Induction of apoptosis in human CNE-2 cells assessed as necrotic cells at 1 uM measured after 24 hrs by annexin-V-FITC and PI staining based flow cytometry analysis (reference value: 0.959%); assay type: functional
MGC-803 [12] = assay: Toxicity in nude mouse xenografted with human MGC-803 cells assessed as morphological changes in lung at 8 mg/kg, ip administrated every other day for 21 days; assay type: functional, organism-based; settings: time 21.0 day
MGC-803 [13] = assay: Toxicity in nude mouse xenografted with human MGC-803 cells assessed as morphological changes in kidney at 8 mg/kg, ip administrated every other day for 21 days; assay type: functional, organism-based; settings: time 21.0 day
CNE-2 [14] = assay: Induction of cell cycle arrest in human CNE-2 cells assessed as accumulation of cells at S phase measured after 48 hrs by flow cytometry analysis; assay type: functional, cell-based; settings: dose 0.5-2 µM
MGC-803 [15] = assay: Toxicity in nude mouse xenografted with human MGC-803 cells assessed as morphological changes in spleen at 8 mg/kg, ip administrated every other day for 21 days; assay type: functional, organism-based; settings: time 21.0 day
MGC-803 [16] = assay: Toxicity in nude mouse xenografted with human MGC-803 cells assessed as morphological changes in heart at 8 mg/kg, ip administrated every other day for 21 days; assay type: functional, organism-based; settings: time 21.0 day
[17] = Toxicity in nude mouse xenografted with human MGC-803 cells assessed as effect on body weight at 4 mg/kg, ip administrated every other day measured at 9 to 14 days; assay type: organism-based; settings: in vivo, time 9-14 day

Structure (SMILES)	Activity [1]	viability at 2 µM (CNE-2 [2]) [%]	Activity (CNE-2 [3]) [%]	Activity (CNE-2 [4]) [%]	viability at 0.5 µM (CNE-2 [5]) [%]	Activity (CNE-2 [6]) [%]	Activity (CNE-2 [7]) [%]	Activity (CNE-2 [8]) [%]	Activity (CNE-2 [9]) [%]	IC50 (CNE-2 [10]) [nM]	Activity (CNE-2 [11]) [%]	Activity (MGC-803 [12])	Activity (MGC-803 [13])	Activity (CNE-2 [14])	Activity (MGC-803 [15])	Activity (MGC-803 [16])	Activity [17]
CN(C)CCN1C(=O)c2cccc3c(N4CCOCC4)c([N+](=O)[O-])cc(c23)C1=O	Toxic	71.9	17	5.68	84	3.01	20.05	2.12	69.25	1480	5.56						
O=C1c2cccc3c(N4CCOCC4)c([N+](=O)[O-])cc(c23)C(=O)N1CCNCCN1C(=O)c2cccc3c(N4CCOCC4)c([N+](=O)[O-])cc(c23)C1=O		70.1	2.62	3.7	82.6	2.19	31.78	7.04	66.18	410	7.3	Not toxic	Not toxic	Dose-Dependent Effect	Not toxic	Not toxic	Non-Toxic
